{"source": "patent US20250281497A1", "about": "“FUSED AMINO PYRIMIDINE COMPOUNDS FOR TREATMENT OF SEIZURE DISORDERS” (Ovid Therapeutics Inc., priority 2024, published 2025)", "key": {"KCC2-S940A": {"biological_target": "T1, KCC2-S940A (Homo sapiens, UniProt Q9H2X9, S963A)", "T1 construct": "expressed in transfected cells; host or cells: HEK-293", "T1 sequence (Q9H2X9 1-1116 isoform Q9H2X9-2 S940A)": "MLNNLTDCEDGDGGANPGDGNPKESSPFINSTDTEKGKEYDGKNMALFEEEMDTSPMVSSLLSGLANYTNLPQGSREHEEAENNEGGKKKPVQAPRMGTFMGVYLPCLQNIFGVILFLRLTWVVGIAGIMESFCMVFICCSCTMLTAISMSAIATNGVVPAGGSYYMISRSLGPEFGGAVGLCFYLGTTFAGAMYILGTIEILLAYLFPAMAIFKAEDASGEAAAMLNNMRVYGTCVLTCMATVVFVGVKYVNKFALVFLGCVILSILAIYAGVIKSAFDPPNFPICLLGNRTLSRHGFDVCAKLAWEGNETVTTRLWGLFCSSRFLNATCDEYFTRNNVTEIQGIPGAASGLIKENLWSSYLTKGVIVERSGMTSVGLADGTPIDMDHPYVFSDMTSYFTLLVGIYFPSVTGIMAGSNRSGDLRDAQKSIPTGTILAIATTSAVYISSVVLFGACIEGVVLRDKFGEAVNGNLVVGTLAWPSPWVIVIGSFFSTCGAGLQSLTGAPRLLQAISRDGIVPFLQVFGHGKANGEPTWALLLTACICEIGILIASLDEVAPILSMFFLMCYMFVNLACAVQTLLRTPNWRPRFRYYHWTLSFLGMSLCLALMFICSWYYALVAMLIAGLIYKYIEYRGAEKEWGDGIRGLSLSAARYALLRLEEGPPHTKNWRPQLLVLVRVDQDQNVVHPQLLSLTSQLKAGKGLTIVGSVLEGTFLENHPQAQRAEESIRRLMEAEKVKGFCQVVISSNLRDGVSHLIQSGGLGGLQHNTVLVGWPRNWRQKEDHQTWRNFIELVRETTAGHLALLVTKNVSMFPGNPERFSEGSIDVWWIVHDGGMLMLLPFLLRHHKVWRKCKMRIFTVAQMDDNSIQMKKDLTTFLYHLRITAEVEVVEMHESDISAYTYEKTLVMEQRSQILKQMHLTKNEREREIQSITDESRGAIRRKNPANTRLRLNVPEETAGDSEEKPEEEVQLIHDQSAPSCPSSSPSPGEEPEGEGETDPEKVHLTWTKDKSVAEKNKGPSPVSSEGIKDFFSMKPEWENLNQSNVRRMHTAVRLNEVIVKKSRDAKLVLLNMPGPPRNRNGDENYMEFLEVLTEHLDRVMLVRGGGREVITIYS", "assay": "Tl+ flux assay, KCC2-S940A construct", "format": "cell-based", "details": "HEK-293", "protocol": "(§1) FLIPR TI Flux assay. HEK-293 cells were washed with HBSS, and then incubated with loading buffer containing TI sensitive fluorescent dye (https://www.moleculardevices.com), 20 μM bumetanide 20 μM ouabain and 2.5 mM probenecid for 1 h at room temperature (RT) under control conditions or with drugs in the dark using a FlexStation 3 microplate reader (Molecular Devices) and imaged […] for 30 min. Stimulus buffer was added containing 5 mM K^+/0.5 mM Tl^+ and cells were imaged every 1.5 over a 190 second time course The initial rate Tl^+ uptake (Relative Fluorescence Units (RFU) per second) was determined following addition of the stimulus buffer as outlined previously (Conway et at, 2017, supra) (Lee et at, 2022, supra).\n(§2) Several studies have shown that the activity and plasma membrane accumulation of KCC2 is potentiated via phosphorylation of S940, a process mediated by the activity of protein kinase C and protein phosphatase 1 (Lee et al., 2011, supra; Lee et al., J Biol Chem 282, 29777-29784 (2007); Moore et al., Proc. Natl. Acad. Sci. U.S.A. 115, 10166-10171 (2018); Moore et al., Trends Neurosci. 40, 555-571 (2017); Silayeva et al., Proc. Natl. Acad. Sci. U.S.A. 112, 3523-3528 (2015)). […] Compared to KCC2, effects on KCC3, KCC4, and NKCC1 were only seen at concentrations more than 35-fold that of KCC2 (>100 μM) (FIG. 1G)."}, "KCC3": {"biological_target": "T2, KCC3 (Homo sapiens, UniProt Q9UHW9)", "T2 construct": "expressed in transfected cells; host or cells: HEK-293", "T2 sequence (Q9UHW9 1-1150)": "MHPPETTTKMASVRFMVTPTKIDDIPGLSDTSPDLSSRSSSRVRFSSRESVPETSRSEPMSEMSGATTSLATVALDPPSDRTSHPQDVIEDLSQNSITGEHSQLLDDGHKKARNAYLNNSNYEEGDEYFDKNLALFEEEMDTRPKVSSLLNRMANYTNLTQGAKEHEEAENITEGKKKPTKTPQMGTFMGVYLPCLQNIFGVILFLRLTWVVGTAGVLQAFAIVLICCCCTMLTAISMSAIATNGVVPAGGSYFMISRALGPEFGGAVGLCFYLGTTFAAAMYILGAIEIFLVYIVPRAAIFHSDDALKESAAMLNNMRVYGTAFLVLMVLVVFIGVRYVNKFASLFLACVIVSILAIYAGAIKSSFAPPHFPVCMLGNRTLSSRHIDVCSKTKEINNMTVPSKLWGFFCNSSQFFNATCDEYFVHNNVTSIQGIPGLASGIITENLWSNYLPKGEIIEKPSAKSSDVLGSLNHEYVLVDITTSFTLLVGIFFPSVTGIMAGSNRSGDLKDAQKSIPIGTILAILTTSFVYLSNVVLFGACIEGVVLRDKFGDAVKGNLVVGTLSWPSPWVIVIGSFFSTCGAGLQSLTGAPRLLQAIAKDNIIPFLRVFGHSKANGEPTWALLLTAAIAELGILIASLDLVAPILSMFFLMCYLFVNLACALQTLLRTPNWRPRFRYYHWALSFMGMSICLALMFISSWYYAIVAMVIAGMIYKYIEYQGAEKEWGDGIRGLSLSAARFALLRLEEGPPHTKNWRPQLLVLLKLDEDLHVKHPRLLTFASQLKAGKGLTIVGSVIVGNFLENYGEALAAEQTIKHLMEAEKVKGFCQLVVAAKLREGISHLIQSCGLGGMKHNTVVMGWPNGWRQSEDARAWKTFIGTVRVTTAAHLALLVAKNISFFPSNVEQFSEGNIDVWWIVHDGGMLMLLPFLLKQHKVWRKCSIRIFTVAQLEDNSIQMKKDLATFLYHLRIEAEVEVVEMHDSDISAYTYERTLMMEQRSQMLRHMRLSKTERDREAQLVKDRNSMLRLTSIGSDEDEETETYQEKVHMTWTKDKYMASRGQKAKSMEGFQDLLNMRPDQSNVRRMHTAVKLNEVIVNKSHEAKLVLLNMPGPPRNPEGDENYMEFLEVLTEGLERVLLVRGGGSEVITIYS", "assay": "Tl+ assay, HEK-293 cells expressing KCC3", "format": "cell-based", "details": "read-out: concentration at which effects on KCC3 were seen (EC50 chart FIG. 1G)", "protocol": "as §1, §2"}}, "data": [{"smiles": "C[C@@H]1CN(c2nc3c(c(Nc4ccc(C5CCCCC5)cc4)n2)COC3)CCO1", "note": "[Compound A, (R)—N-(4-cyclohexylphenyl)-2-(2-methylmorpholino)-5,7-dihydrofuro[3,4-d]pyrimidin-4-amine]", "values": [{"measurement": "activity of KCC2-S940A construct", "setting": "KCC2-S940A", "value": "increased the activity"}, {"measurement": "EC50", "setting": "KCC3", "value": "> 100", "unit": "µM"}]}]}
